{"source": "patent EP1171146B1", "about": "“PHARMACEUTICAL CO[…] GINKGO BILOBA EXTRACT USEFUL FOR TREATING DEMENTIA” (priority 1999, dated 2000)", "key": {"[1]": {"tested_on": "rats with memory loss induced by scopolamine", "assay": "Passive avoidance response test (step-through shuttle box)", "type": "in vivo, Sprague-Dawley rats", "conditions": "selegiline 2 mg/kg/day and/or Ginkgo biloba extract 48 mg/kg/day p.o. for 3 weeks; scopolamine 6 mg/kg; Figure 1", "protocol": "(§1) To evaluate effects on memory and learning functions, rats of each group were challenged with injection of scopolamine, a drug which cause memory loss and then, subjected to the following tests.\nRats of each group were previously subjected to the adaptation training and subsequent exercises in a shuttle box of step-through type. In the real experiment, scopolamine at a dose of 6 mg/kg was given intraperitoneally and, after 30 minutes, passive avoidance responses were determined. Longer latency in response time indicate improved memory and learning fuctions.\nIn a step-through passive avoidance test, rats of both normal and test group treated with drugs for 3 weeks were put in a shuttle box and tested for latency time required for avoidance response after being given with scopolamine injection to induce memory loss and the results are shown in Figure 1."}, "[2]": {"tested_on": "rats with memory loss induced by scopolamine", "assay": "8-arm radial maze test", "type": "in vivo, Sprague-Dawley rats", "conditions": "selegiline 2 mg/kg/day and/or Ginkgo biloba extract 48 mg/kg/day p.o. for 3 weeks; scopolamine 6 mg/kg; compared with control group; Figure 2", "protocol": "as §1\nAccording to 01 ton and Samuelson methods[J. Exp. Psychol. Anim. Behav. Proc. 2, 97(1976)], 8-arm radial maze test system was used. That is, rats of each group were placed in the center of the eight 65-cm arms of the maze test system, which are radially stretched, and 45 mg each of pellet type feed was placed at the end of each arm. Rats were trained to visit the arm-ends to get the pellet type feeds. In real experiment, rats were pre-treated with intraperitoneal injection of scopolamine at a dose of 6 mg/kg as a challenge and subjected to the test after 30 minutes from injection.\nTest was repeated for fifty(50) times. Smaller visit errors indicate gained improvements in memory and learning functions.\nIn order to induce memory loss, scopolamine was injected to the rats of both normal and test groups which received drug treatment for 3 weeks and then the rats were placed in the center of the 8-arm maze test system to record numbers of visit errors to the respective arms."}, "[3]": {"tested_on": "SOD(Superoxide dismutase)", "assay": "SOD activity after partial ischemia and reperfusion", "type": "in vivo, Sprague-Dawley rats", "conditions": "cerebral cortex; 30 min ischemia, 3 hours reperfusion; 3-week treatment; mean±S.E. (n=6)", "protocol": "The supernatant was used as sample.\nPreviously, a test tube containing 2.3 mℓ of phosphate buffer with pH 7.8, 300 µℓ of 0.5 mM Na-xanthine, 100 µℓ of 50 µm K-cyanide and 100 µℓ of 2.4 mM Na-deoxycholate was prepared and kept in a water bath of 25 °C. To this test tube, 300 µℓ of 0.1 mM ferricytochrome and sample were added.\nThen. the solution was transferred to a cell, 100 µℓ of xanthine oxidase was added, a sealing tape was placed on the cell and, while closing well with fingers, the cell was carefully shaken to mix. Changes in absorbance were measured and recorded for one minute at the wavelength of 550 nm."}, "[4]": {"tested_on": "pyramidal neuronal cells at CA1 (Ammon's horn) area of the hippocampus", "assay": "Histopathological examination of hippocampus after complete ischemia and reperfusion (cresyl-violet staining)", "type": "in vivo, Mongolian gerbil", "protocol": "Gerbils of both control and test groups were anesthetized with injection of pentobarbital sodium at a dose of 50 mg/kg and the carotid arteries on both sides were closed for 5 minutes to induce complete ischemia. After 7 days from initiation of reperfusion, tissues were examined by means of cresyl-violet staining.\nTissue examination under cresyl-violet staining mentioned above was done as follows. Excised cerebellum was cut into slices using sliding microtome and the slices were treated sequentially with xylene and alcohol for five minutes and finally, soaked into distilled water for another 5 minutes. Then, the slice was stained with cresyl-violet which had been prepared in advance.\nAfter staining, the slice was washed one time for 30 minutes with flowing water, followed by dehydrating in alcohol and subsequent two time washings with xylene for 10 minutes. Then, a cover glass was placed on and the specimen was examined under optical microscope.\nIn the cases of complete ischemia and subsequent reperfusion, biochemical changes will appear initially but some morphological changes may result after a few days. […]"}, "[5]": {"tested_on": "cerebral cortex of ischemic rats", "assay": "Energy metabolites in the cerebral cortex in partial ischemia", "conditions": "3-week treatment, mean±S.E. (n=6)"}, "MDA(Malondialdehyde)": {"tested_on": "MDA(Malondialdehyde)", "assay": "Malondialdehyde measurement after partial ischemia and reperfusion", "conditions": "cerebral cortex; 30 min ischemia, 3 hours reperfusion; 3-week treatment; mean±S.E. (n=6)"}, "[6]": {"tested_on": "glutathione(GSH) peroxidase", "assay": "Glutathione peroxidase activity after partial ischemia and reperfusion", "conditions": "cerebral cortex; 30 min ischemia, 3 hours reperfusion; 3-week treatment; mean±S.E. (n=6)"}, "[7]": {"tested_on": "cerebral cortex of ischaemic rats", "assay": "Dopamine and its metabolites concentrations in partial ischemia (HPLC-ECD)", "conditions": "vs control, Figure 3"}}, "data": [{"smiles": "C#CCN(C)[C@H](C)Cc1ccccc1", "note": "[Selegiline]", "values": [{"measurement": "avoidance response time (latency)", "setting": "[1]", "result": "significant increase"}, {"measurement": "visit errors", "setting": "[2]", "result": "tended to decrease"}, {"measurement": "SOD activity", "setting": "[3]", "result": "0.42±0.04", "unit": "units/mg protein"}, {"measurement": "protection of pyramidal cells at CA1 Ammon's horn site of the hippocampus", "setting": "[4]; 5 min complete ischemia, 7 days reperfusion, 3-week treatment, Figures 4e-4j", "result": "did not show any effects of significance for protection of the cells"}, {"measurement": "Nerve Cell Density", "setting": "[4]; CA1 site of the hippocampus, mean ± standard error (n=3-4)", "result": "45±10 /mm"}, {"measurement": "ATP", "setting": "[5]", "result": "1.12±0.04", "unit": "µmol /g wet wt."}, {"measurement": "Glucose", "setting": "[5]", "result": "1.21 ±0.02", "unit": "µmol/g wet wt."}, {"measurement": "Lactate", "setting": "[5]", "result": "5.42±0.15", "unit": "µmol/g wet wt."}, {"measurement": "Pyruvate", "setting": "[5]", "result": "0.10±0.011", "unit": "µmol/g wet wt."}, {"measurement": "MDA", "setting": "MDA(Malondialdehyde)", "result": "1.80±0.22", "unit": "nmol/mg protein"}, {"measurement": "GSH peroxidase", "setting": "[6]", "result": "2.04±0.22", "unit": "units/mg protein"}, {"measurement": "content of dopamine", "setting": "[7]; 3-week p.o. selegiline 2 mg/kg/day and/or Ginkgo biloba extract 48 mg/kg/day", "result": "significant increases"}, {"measurement": "contents of HVA(Homovanillic acid)", "setting": "[7]; 3-week p.o. treatment", "result": "decreased significantly"}]}]}
